From US20260285857A1, “BICYCLIC AND HETEROCYCLIC AMIDE COMPOUNDS” (priority 2024, published 2026)

Test system: immunoglobulin light chain protein WIL-FL T46L
Assay: Differential scanning fluorimetry (thermal shift) assay
Format: binding
Conditions: temperature shift [Tm]compound-[Tm]vehicle, recombinant WIL-FL T46L

| SMILES | DSF (Table B) | DSF (Table A) |
| --- | --- | --- |
| Cc1cc(N2CC[C@](C)(c3ccccc3)C2)cn2nc(C(=O)NC3CN(c4cccc(C(=O)O)n4)CC3O)nc12 (some centres unmarked) [Compound 684] | ***** (>2.5° C.=*****) | – |
| Cc1cc(N2CC[C@](C)(c3ccccc3)C2)cn2nc(C(=O)N3CCOC4(CNC4)C3)nc12 [Compound 177] | – | ***** (>2.5° C.=*****) |
| Cc1cc(N2CC[C@](C)(c3ccccc3)C2)cn2nc(C(=O)NC3C4CC3N(c3cccc(C(=O)O)n3)C4)nc12 (stereo partly drawn) [Compound 697, 6-[5-[[8-methyl-6-[(3R)-3-methyl-3-phenyl-pyrrolidin-1-yl]-[1,2,4]triazolo[1,5-a]pyridine-2-carbonyl]amino]-2-azabicyclo[2.1.1]hexan-2-yl]pyridine-2-carboxylic acid] | ***** (>2.5° C.=*****) | – |
| CNS(=O)(=O)c1nc2c(C)cc(N3CC[C@](C)(c4ccccc4)C3)cn2n1 [Compound 324] | – | ***** (>2.5° C.=*****) |
| Cc1cc(N2CC[C@](C)(c3ccccc3)C2)cn2nc(C(=O)NC3CC4(CCC4Nc4cccc(C(=O)O)n4)C3)nc12 (stereo partly drawn) [Compound 662, 6-((6-(8-methyl-6-((R)-3-methyl-3-phenylpyrrolidin-1-yl)-[1,2,4]triazolo[1,5-a]pyridine-2-carboxamido)spiro[3.3]heptan-1-yl)amino)picolinic acid] | ***** (>2.5° C.=*****) | – |
| Cc1cc(N2CC[C@](C)(c3ccccc3)C2)cn2nc(C34CC(CO3)C4CC(N)=O)nc12 (some centres unmarked) [Compound 85] | – | ***** (>2.5° C.=*****) |
| Cc1cc(N2CC[C@](C)(c3ccccc3)C2)cn2nc(C(=O)N[C@@H]3CNCC34CC4)nc12 [Compound 186] | – | ***** (>2.5° C.=*****) |
| Cc1cc(N2CC[C@](C)(c3ccccc3)C2)cn2nc(C(=O)NC34CCC(CO)(C3)C4)nc12 [Compound 204] | – | ***** (>2.5° C.=*****) |
| Cc1cc(N2CC[C@](C)(c3ccccc3)C2)cn2nc(C(=O)N3CC[C@@]4(CCN(C(=O)C5CC(C)(C(=O)O)C5)C4)C3)nc12 (some centres unmarked) [Compound 709] | ***** (>2.5° C.=*****) | – |
| Cc1cc(N2CC[C@](C)(c3ccccc3)C2)cn2nc(C34CC(CO3)C4c3nc(N)nn3C(=O)C3CC(C)(C(=O)O)C3)nc12 (some centres unmarked) [Compound 556] | ***** (>2.5° C.=*****) | – |
| Cc1cc(N2CC[C@](C)(c3ccccc3)C2)cn2nc(C(=O)N3CC4(C3)CN(c3cccc(C(=O)O)n3)CCO4)nc12 [Compound 665] | ***** (>2.5° C.=*****) | – |
| Cc1cc(N2CC[C@](C)(c3ccccc3)C2)cn2nc(C(=O)NC3CCC34CC(O)C4)nc12 (stereo partly drawn) [Compound 676, N-(2-hydroxyspiro[3.3]heptan-7-yl)-8-methyl-6-[(3R)-3-methyl-3-phenyl-pyrrolidin-1-yl]-[1,2,4]triazolo[1,5-a]pyridine-2-carboxamide] | ***** (>2.5° C.=*****) | – |
| CCC1(c2cccc(C)c2)CN(c2cc(C)c3nc(C(=O)N4C[C@@H]5CN(c6cccc(C(=O)O)n6)C[C@@H]5C4)nn3c2)C1 [Compound 397] | – | ***** (>2.5° C.=*****) |
| Cc1cc(N2CC[C@](C)(c3ccccc3)C2)cn2nc(C(=O)N3CCC(OCC(=O)O)CC3)nc12 [Compound 182] | – | ***** (>2.5° C.=*****) |
| Cc1cc(N2CC[C@](C)(c3ccccc3)C2)cn2nc(C34CC(CO3)C4CNc3cccc(C(=O)O)n3)nc12 (stereo partly drawn) [Compound 8, 6-[[1-[8-methyl-6-[(3R)-3-methyl-3-phenyl-pyrrolidin-1-yl]-[1,2,4]triazolo[1,5-a]pyridin-2-yl]-2-oxabicyclo[2.1.1]hexan-5-yl]methylamino]pyridine-2-carboxylic acid] | – | ***** (>2.5° C.=*****) |
| Cc1cc(N2CC[C@](C)(c3ccccc3)C2)cn2nc(C(=O)N3CCC4(COCC(C(=O)O)O4)C3)nc12 (some centres unmarked) [Compound 598] | ***** (>2.5° C.=*****) | – |
| Cc1cc(N2CC[C@](C)(c3ccccc3)C2)cn2nc(C34CC(C(N)=O)(CO3)C4)nc12 [Compound 55] | – | ***** (>2.5° C.=*****) |
| Cc1cc(N2CC[C@](C)(c3ccccc3)C2)cn2nc(C(=O)N3CC4(O)CC3C4)nc12 [Compound 146] | – | ***** (>2.5° C.=*****) |
| Cc1cc(N2CC[C@](C)(c3ccccc3)C2)cn2nc(C(=O)N(C)[C@H]3CCNC3)nc12 [Compound 103] | – | ***** (>2.5° C.=*****) |
| Cc1cc(N2CC[C@](C)(c3ccccc3)C2)cn2nc(C(=O)NCCN3C[C@H](O)[C@@H](O)C3)nc12 [Compound 119] | – | ***** (>2.5° C.=*****) |
| CCC1(c2ccccc2)CN(c2cc(C)c3nc(C(=O)N4C[C@@H]5CN(c6cccc(C(=O)O)n6)C[C@@H]5C4)nn3c2)C1 [Compound 631] | ***** (>2.5° C.=*****) | – |

| SMILES | DSF (Table B) | DSF (Table A) |
| --- | --- | --- |
| Cc1cc(N2CC[C@](C)(c3ccccc3)C2)cn2nc(C34CC(CO3)C4Cn3ncnc3C)nc12 (some centres unmarked) [Compound 82] | – | ***** (>2.5° C.=*****) |
| Cc1cc(N2CC[C@](C)(c3ccccc3)C2)cn2nc([C@@]34C[C@@H](CO3)[C@H]4N3CC4(CC4)NC3=O)nc12 [Compound 524] | ***** (>2.5° C.=*****) | – |
| Cc1cc(OC[C@H](C)c2ccccc2)cn2nc(C(=O)NC3CC4(CC(O)C4)C3)nc12 (some centres unmarked) [Compound 313] | – | ***** (>2.5° C.=*****) |
| Cc1nc(C2C3(CNS(=O)(=O)CC(C)(C)C(=O)O)COC2(c2nc4c(C)cc(N5CC[C@](C)(c6ccccc6)C5)cn4n2)C3)n[nH]1 (stereo partly drawn) [Compound 584, 2,2-dimethyl-3-(N-((5-(5-methyl-11H-1,2,4-triazol-3-yl)-1-(8-methyl-6-((R)-3-methyl-3-phenylpyrrolidin-1-yl)-[1,2,4]triazolo[1,5-a]pyridin-2-yl)-2-oxabicyclo[2.1.1]hexan-4-yl)methyl)sulfamoyl)propanoic acid] | ***** (>2.5° C.=*****) | – |
| Cc1cc(N2CC[C@](C)(c3ccccc3)C2)cn2nc(C(=O)N3CCC4(CC(=O)N(c5cccc(C(=O)O)n5)C4)C3)nc12 (stereo partly drawn) [Compound 671, 6-[7-[8-methyl-6-[(3R)-3-methyl-3-phenyl-pyrrolidin-1-yl]-[1,2,4]triazolo[1,5-a]pyridine-2-carbonyl]-3-oxo-2,7-diazaspiro[4.4]nonan-2-yl]pyridine-2-carboxylic acid] | ***** (>2.5° C.=*****) | – |
| Cc1cc(OC[C@H](C)c2ccccc2)cn2nc(C34CC(CO3)C4C(N)=O)nc12 (some centres unmarked) [Compound 437] | – | *** (>1-1.5° C.=***) |
| Cc1cc(N2CC[C@](C)(c3ccccc3)C2)cn2nc(C34CC(CO3)C4COC3CCN(c4cccc(C(=O)O)n4)CC3)nc12 (some centres unmarked) [Compound 503] | ***** (>2.5° C.=*****) | – |
| Cc1cc(N2CC[C@](C)(c3ccccc3)C2)cn2nc(C34CC(CO3)C4N3CC4(CCC4)NC3=O)nc12 (stereo partly drawn) [Compound 532, 7-(1-(8-methyl-6-((R)-3-methyl-3-phenylpyrrolidin-1-yl)-[1,2,4]triazolo[1,5-a]pyridin-2-yl)-2-oxabicyclo[2.1.1]hexan-5-yl)-5,7-diazaspiro[3.4]octan-6-one] | ***** (>2.5° C.=*****) | – |
| Cc1cc(N2CC[C@](C)(c3ccccc3Cl)C2)cn2nc(C34CC(CO3)C4N3CC4(CC4)NC3=O)nc12 (stereo partly drawn) [Compound 513, 6-[1-[6-[(3R)-3-(2-chlorophenyl)-3-methyl-pyrrolidin-1-yl]-8-methyl-[1,2,4]triazolo[1,5-a]pyridin-2-yl]-2-oxabicyclo[2.1.1]hexan-5-yl]-4,6-diazaspiro[2.4]heptan-5-one] | ***** (>2.5° C.=*****) | – |
| C[C@]1(c2ccccc2)CCN(c2cc(CO)c3nc(C(=O)N4CCC5(CCN(c6ccnc(C(=O)O)c6)C5)C4)nn3c2)C1 (some centres unmarked) [Compound 334] | – | ***** (>2.5° C.=*****) |
| Cc1cc(N2CC[C@](C)(c3ccccc3)C2)cn2nc(C34CC(CO3)C4c3cn(C)nn3)nc12 (stereo partly drawn) [Compound 11, 8-methyl-6-[(3R)-3-methyl-3-phenyl-pyrrolidin-1-yl]-2-[5-(1-methyltriazol-4-yl)-2-oxabicyclo[2.1.1]hexan-1-yl]-[1,2,4]triazolo[1,5-a]pyridine] | – | ***** (>2.5° C.=*****) |
| Cc1cc(N2CC3(CCC3c3cccc(F)c3)C2)cn2nc(C(=O)N3CC[C@@]4(CCN(c5cccc(C(=O)O)n5)C4)C3)nc12 (some centres unmarked) [Compound 737] | ***** (>2.5° C.=*****) | – |
| Cc1cc(N2CC[C@](C)(c3ccccc3)C2)cn2nc(C(=O)N3CCC(Nc4cccc(C(=O)O)n4)C3)nc12 (some centres unmarked) [Compound 616] | ***** (>2.5° C.=*****) | – |
| C[C@]1(c2ccccc2)CCN(c2cc(N)c3cc(C(=O)N4CC[C@@]5(CCN(c6cccc(C(=O)O)n6)C5)C4)nn3c2)C1 [Compound 22, 6-((R)-7-(4-amino-6-((R)-3-methyl-3-phenylpyrrolidin-1-yl)pyrazolo[1,5-a]pyridine-2-carbonyl)-2,7-diazaspiro[4.4]nonan-2-yl)picolinic acid] | – | **** (>1.5-2.5° C.=****) |
| Cc1cc(N2CC[C@](C)(c3ccccc3)C2)cn2nc(C(=O)NC3CC4(C3)CN(C(=O)C35CCC(C(=O)O)(CC3)OC5)C4)nc12 [Compound 678, 4-[6-[[8-methyl-6-[(3R)-3-methyl-3-phenyl-pyrrolidin-1-yl]-[1,2,4]triazolo[1,5-a]pyridine-2-carbonyl]amino]-2-azaspiro[3.3]heptane-2-carbonyl]-2-oxabicyclo[2.2.2]octane-1-carboxylic acid] | ***** (>2.5° C.=*****) | – |
| COC(=O)c1cc(-n2nnc3c2CCN(C(=O)c2nc4c(C)cc(N5CC[C@](C)(c6ccccc6)C5)cn4n2)C3)ccn1 [Compound 402] | – | ***** (>2.5° C.=*****) |
| Cc1cc(N2CC[C@](C)(c3ccccc3)C2)cn2nc(C34CC(CO3)C4C(=O)NCC(C)(C)O)nc12 (some centres unmarked) [Compound 71] | – | ***** (>2.5° C.=*****) |
| Cc1cc(N2CC[C@](C)(c3ccccc3)C2)cn2nc(C34CC(CO3)C4COC3CC4(CNC4)C3)nc12 (some centres unmarked) [Compound 501] | ***** (>2.5° C.=*****) | – |
| Cc1cc(N2CC[C@](C)(c3ccccc3)C2)cn2nc(C(=O)NC34CCC(O)(C3)C4)nc12 [Compound 111] | – | ***** (>2.5° C.=*****) |
| Cc1cc(N2CC[C@](C)(c3ccccc3)C2)cn2nc(C(=O)Nc3ccnc(C(=O)O)c3)nc12 [Compound 262] | – | ***** (>2.5° C.=*****) |
